# “And” between values parts separate entries of the source, which are not always exact repeats. Equal values may be shown once. The source made the active and inactive calls. Rule as the data show it, for most assays here: actives have a measured EC50 and inactives only a lower limit.
# Assays:
# [1] = molecular target: T1, Heat shock factor protein 1 (Mus musculus, UniProt P38532); experiment: decrease of HSF1-responsive luciferase luminescence – cell-based, NIH3T3, dose retest, confirmation (AID 2382); type: functional;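 also: NIH3T3 fibroblasts with HSF1-driven luciferase reporter stressed by proteasome inhibitor MG132; luminescence from HSF1-driven luciferase expression after 8 hours of MG132 stress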
# T1 sequence (P38532 whole entry): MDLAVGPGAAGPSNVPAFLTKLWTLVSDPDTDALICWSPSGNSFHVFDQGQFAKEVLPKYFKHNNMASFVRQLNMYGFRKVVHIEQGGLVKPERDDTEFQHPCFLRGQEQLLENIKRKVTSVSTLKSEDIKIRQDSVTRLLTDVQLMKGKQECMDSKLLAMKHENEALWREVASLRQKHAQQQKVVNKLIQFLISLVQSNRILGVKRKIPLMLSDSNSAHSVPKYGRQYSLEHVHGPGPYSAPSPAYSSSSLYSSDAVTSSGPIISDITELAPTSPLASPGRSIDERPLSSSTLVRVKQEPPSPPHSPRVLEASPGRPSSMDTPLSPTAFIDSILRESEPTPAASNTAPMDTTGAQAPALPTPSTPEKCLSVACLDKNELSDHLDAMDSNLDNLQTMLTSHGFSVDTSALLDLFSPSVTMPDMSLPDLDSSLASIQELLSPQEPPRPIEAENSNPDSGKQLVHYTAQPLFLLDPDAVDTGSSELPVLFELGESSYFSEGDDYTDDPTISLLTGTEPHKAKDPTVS
# Cytochrome P450 3A4 = Cytochrome P450 3A4 (Homo sapiens, UniProt P08684);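 also: CYP3A4 tested as one member of a cytochrome P450 panel screen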
# [2] = Luminescence Cell-Based Dose Retest to Confirm Inhibitors of Cancer Stem Cells. [Related pubchem assays (depositor defined):AID2717, AID2721]; type: functional; settings: Homo sapiens
# [3] = Trypanosoma cruzi growth suppression in host cells – NIH3T3 host cells, beta-gal luminescence, confirmation (AID 2044); type: functional, cell-based;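 also: intracellular parasites grown in NIH/3T3 mouse fibroblasts as host cells; luminescent beta-galactosidase reporter signal from transgenic T. cruzi replicating inside host cells; inhibitors lower the luminescence signal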
# [4] = NIH3T3 cell viability loss – ATP luminescence, mouse fibroblasts, counter-screen, dose response (AID 2010); type: functional, cell-based;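 also: cells exposed to compound for about 90 hours before reading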
# [5] = Luminescence Cell-Based Dose Response HTS to Identify Activators of Luciferase Translation or Activity in H4 […] Cells. [Related pubchem assays: 1829 (Project Summary), 1814 (Primary HTS)]; type: functional
# Cytochrome P450 2C9 = Cytochrome P450 2C9 (Homo sapiens, UniProt P11712)
# [6] = molecular target: T2, Corticotropin-releasing factor receptor 2/Corticotropin-releasing factor-binding protein (Homo sapiens, UniProt P24387+Q13324); experiment: activators of CRF receptor 2 with binding protein – uHTS hits, confirmation (AID 602473); type: functional; settings: read-out: EC50_Mean
# T2 sequence (Q13324 whole entry): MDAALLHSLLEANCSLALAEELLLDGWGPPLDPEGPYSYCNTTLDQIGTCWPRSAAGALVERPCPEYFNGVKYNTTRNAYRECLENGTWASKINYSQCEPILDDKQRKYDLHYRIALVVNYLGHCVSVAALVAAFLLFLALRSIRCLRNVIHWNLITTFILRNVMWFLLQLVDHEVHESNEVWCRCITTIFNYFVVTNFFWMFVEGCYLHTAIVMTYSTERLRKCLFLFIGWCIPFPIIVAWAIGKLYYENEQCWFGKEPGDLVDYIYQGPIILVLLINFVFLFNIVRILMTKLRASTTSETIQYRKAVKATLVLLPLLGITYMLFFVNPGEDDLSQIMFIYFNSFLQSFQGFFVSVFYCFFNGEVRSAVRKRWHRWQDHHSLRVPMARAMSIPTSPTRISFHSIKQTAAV
# T2 sequence (P24387 whole entry): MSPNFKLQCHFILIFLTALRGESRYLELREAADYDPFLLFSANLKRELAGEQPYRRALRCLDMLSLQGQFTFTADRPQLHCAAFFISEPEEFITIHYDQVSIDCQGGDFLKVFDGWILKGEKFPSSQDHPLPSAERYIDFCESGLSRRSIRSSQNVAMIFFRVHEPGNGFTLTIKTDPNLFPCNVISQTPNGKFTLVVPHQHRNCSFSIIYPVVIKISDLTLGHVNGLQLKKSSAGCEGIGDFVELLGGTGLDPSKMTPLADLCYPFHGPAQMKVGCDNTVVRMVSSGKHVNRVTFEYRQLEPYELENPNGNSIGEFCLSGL
# Chain of Cytochrome P450 2C9 (P11712 whole entry): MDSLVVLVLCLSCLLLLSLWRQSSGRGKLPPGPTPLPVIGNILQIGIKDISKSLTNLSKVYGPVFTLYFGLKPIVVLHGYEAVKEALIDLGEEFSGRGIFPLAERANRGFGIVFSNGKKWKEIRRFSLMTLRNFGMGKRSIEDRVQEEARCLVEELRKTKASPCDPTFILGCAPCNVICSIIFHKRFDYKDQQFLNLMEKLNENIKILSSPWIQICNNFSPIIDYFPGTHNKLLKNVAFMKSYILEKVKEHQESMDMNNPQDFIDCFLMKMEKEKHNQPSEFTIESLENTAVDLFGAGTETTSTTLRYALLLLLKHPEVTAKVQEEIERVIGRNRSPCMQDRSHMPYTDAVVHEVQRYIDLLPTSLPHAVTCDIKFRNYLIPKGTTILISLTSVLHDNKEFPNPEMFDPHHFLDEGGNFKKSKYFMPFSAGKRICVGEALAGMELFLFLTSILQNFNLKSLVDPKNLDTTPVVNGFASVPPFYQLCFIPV
# Chain of Cytochrome P450 3A4 (P08684 whole entry): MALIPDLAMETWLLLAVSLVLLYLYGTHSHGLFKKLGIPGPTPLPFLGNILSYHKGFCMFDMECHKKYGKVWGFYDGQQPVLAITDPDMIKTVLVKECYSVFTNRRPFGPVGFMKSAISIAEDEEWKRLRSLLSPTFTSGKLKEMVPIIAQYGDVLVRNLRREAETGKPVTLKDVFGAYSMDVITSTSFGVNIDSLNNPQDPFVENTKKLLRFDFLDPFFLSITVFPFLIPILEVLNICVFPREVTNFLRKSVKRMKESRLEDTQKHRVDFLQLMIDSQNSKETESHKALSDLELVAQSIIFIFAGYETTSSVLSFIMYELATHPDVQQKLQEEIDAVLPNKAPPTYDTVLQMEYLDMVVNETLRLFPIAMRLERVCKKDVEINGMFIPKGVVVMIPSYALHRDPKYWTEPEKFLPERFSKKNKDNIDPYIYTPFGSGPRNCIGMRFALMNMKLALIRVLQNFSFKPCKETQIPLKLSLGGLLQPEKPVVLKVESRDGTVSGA
smiles,measurement,setting,value
NS(=O)(=O)c1ccc(NC(=O)COC(=O)C2(c3ccccc3F)CCCC2)cc1,EC50,[1],26 µM (active)
O=C1NC(=O)[C@@](Cc2ccccc2)(c2cccnc2)N1,AC50,Cytochrome P450 3A4,3.98 µM (inconclusive)
CCOc1cc(C#N)c(NC(=O)c2cccnc2Cl)cc1OCC,EC50,[1],> 195 µM (not active)
CCC(C)NC(=O)CN1C(=O)CN=C(c2ccccc2)c2ccccc21 (centres undefined),EC50,[1],> 195 µM (not active)
S=C(Nc1ccc(Oc2ccccc2)cc1)NC1CCCCCC1,AC50,[2],5.01 µM (active)
COc1ccccc1Oc1ccc2c(c1)C(=O)N(c1ccc(Br)c3cccnc13)C2=O,EC50,[1],> 195 µM (not active)
Nc1ncnc2c1ncn2[C@@H]1O[C@H](CO)C[C@@H]1O,EC50,[3],0.531 µM (active)
same,EC50,[4],> 60 µM (not active)
CN(C)c1ccc(/N=C/c2nc(-c3ccccc3)oc2OC(=O)c2cccc(Br)c2)cc1,EC50,[5],31 µM (active)
CCN1C(=O)c2ccccc2[S+]([O-])c2ccc(C(=O)NCc3ccc(OC)cc3)cc21 (centres undefined),EC50,[1],> 195 µM (not active)
Fc1ccccc1Nc1nc(-c2ccncc2)nc2ccccc12,EC50,[3],1.32 µM (active)
same,EC50,[4],> 60 µM (not active)
CCCOc1c(OC)cccc1C1CC(=O)Nc2cc3c(cc21)OCCO3 (centres undefined),AC50,[2],1.85 µM (active)
CC(C)c1ccc(CNCCCSc2ncccn2)cc1,EC50,[3],0.163 µM (active)
same,EC50,[4],> 30 µM (not active)
CCN(CC)C(=O)N[C@@H]1C[C@H]2c3cccc4[nH]cc(c34)C[C@@H]2N(C)C1,AC50,Cytochrome P450 3A4,6.31 µM (inconclusive) and 3.98 µM (inconclusive)
CCC(=O)N(Cc1ccco1)c1nc(-c2ccccc2)cs1,AC50,Cytochrome P450 3A4,39.8 µM (inconclusive)
COc1ccc(S(=O)(=O)/C(C#N)=C/Nc2cccc(OC)c2)cc1,EC50,[1],> 195 µM (not active)
Cc1cc2nc(-c3ccc(SCc4ccc(C#N)cc4)nc3)[nH]c2cc1C,EC50,[3],2.06 µM (active)
same,EC50,[4],> 60 µM (inconclusive)
C/C(=N\Nc1ccc(C(=O)O)cc1)c1nc2ccccc2n1C,EC50,[5],18.9 µM (active)
COc1ccc(CN2CC=C(c3ccc(F)cc3)CC2)cc1Br,EC50,[1],> 195 µM (not active)
COc1ccc(OC)c(Nc2c3ccccc3nc3ccccc23)c1,AC50,[2],3.78 µM (active)
C[C@@H]1CC=C[C@H]2[C@H]1C(=O)N(Cc1ccccc1)[C@H]2c1ccc2ccccc2c1,AC50,[2],5.69 µM (active)
O=C(O)CCC(=O)N1CCc2cc(S(=O)(=O)N3CCCCC3)ccc21,AC50,Cytochrome P450 2C9,15.8 µM (inconclusive)
O=C(COC(=O)C1C2CC3OC(=O)C1C3C2)Nc1cccc(Cl)c1 (centres undefined),EC50,[1],> 195 µM (not active)
CC(=O)Nc1ccc2nc(NC(=O)c3ccc([N+](=O)[O-])s3)sc2c1,EC50,[3],0.993 µM (active)
same,EC50,[4],> 60 µM (not active)
O=C(C1CCN(S(=O)(=O)N2CCOCC2)CC1)N1CCN(c2ccccc2)CC1,AC50,Cytochrome P450 2C9,22.4 µM (inconclusive)
Cc1noc(C)c1COc1cccc(C(=O)Nc2ccc(OCc3ccccc3)cc2)c1,AC50,[2],10.8 µM (active)
CCN(CC)S(=O)(=O)c1cc(C(=O)Nc2ccccc2C(=O)O)ccc1OC,AC50,Cytochrome P450 3A4,12.6 µM (inconclusive)
COc1cc(CNCc2c[nH]c3ccccc23)cc(OC)c1,EC50,[3],2.93 µM (active)
same,EC50,[4],> 60 µM (not active)
COc1ccc(C(=O)C2CCCN(Cc3cccn3-c3ccc(Cl)cn3)C2)c(OC)c1 (centres undefined),EC50,[3],1.47 µM (active)
same,EC50,[4],> 60 µM (not active)
COc1cc(CCC(=O)OCn2nnc3ccccc3c2=O)cc(OC)c1OC,EC50,[1],> 195 µM (not active)
CCN1CCN(c2ccc(S(=O)(=O)N3CCCCC3)cc2NC(=O)Cc2ccccc2F)CC1,EC50,[3],0.235 µM (active)
same,EC50,[4],> 30 µM (not active)
O=C(Oc1ccc2c(c1)CN(Cc1ccccc1)CO2)c1ccccc1,AC50,Cytochrome P450 3A4,3.98 µM (inconclusive)
COc1ncc2nc(C)c(=O)n(C3CC3)c2n1,AC50,Cytochrome P450 3A4,25.1 µM (inconclusive)
Fc1cccc(Cl)c1/C=N\N=C1c2ccccc2-c2ccccc21,AC50,Cytochrome P450 2C9,3.16 µM (inconclusive)
Clc1ccc(Cl)c(Nc2ccnc(SCc3ccccc3)n2)c1,AC50,Cytochrome P450 2C9,6.31 µM (inconclusive)
same,AC50,Cytochrome P450 3A4,3.98 µM (inconclusive)
CC1CN(S(=O)(=O)c2ccc(C(=O)Nc3nnc(-c4ccc5c(c4)CCCC5)o3)cc2)CC(C)O1 (centres undefined),EC50,[3],1.86 µM (active)
same,EC50,[4],3.39 µM (active)
Cn1c(CN2CCCC(C(=O)c3ccc4c(c3)OCO4)C2)nc2ccccc21 (centres undefined),EC50,[3],1.35 µM (active)
same,EC50,[4],> 60 µM (inconclusive)
CN(Cc1nc(-c2ccccc2)no1)C(=O)c1ccc2c(c1)OCO2,EC50,[1],> 195 µM (not active)
CCN(CC(=O)Nc1ccc(NC(C)=O)cc1)C(=O)C12CC3CC(CC(Cl)(C3)C1)C2,EC50,[1],> 195 µM (not active)
O=C(NNC(=S)Nc1ccccc1)c1ccco1,AC50,Cytochrome P450 2C9,35.5 µM (inconclusive)
CCOc1ccc(C(=O)Nc2ccccc2N2CCCC2)cc1,AC50,Cytochrome P450 2C9,14.1 µM (inconclusive)
CC(C)(C)S(=O)(=O)c1cnc2c(-c3ccc(F)cc3)cnn2c1N,AC50,Cytochrome P450 3A4,7.94 µM (inconclusive)
CNC(=O)c1ccsc1NC(=O)c1ccc(S(=O)(=O)N2CCCc3ccccc32)cc1,EC50,[3],2.02 µM (active)
same,EC50,[4],> 60 µM (inconclusive)
Cc1n[nH]c(Nc2ccccc2)c1[N+](=O)[O-],AC50,Cytochrome P450 3A4,25.1 µM (inconclusive)
Cc1c(C(=O)Nc2ccc(Cl)cc2)c2ccccn2c1C(=O)c1ccc([N+](=O)[O-])cc1,EC50,[3],0.737 µM (active)
same,EC50,[4],> 60 µM (not active)
CC(=O)OCC(=O)NCC(=O)c1c[nH]c2ccccc12,EC50,[1],> 195 µM (not active)
Cc1cc(OCC(=O)N2CCOCC2)ccc1NC(=O)c1ccccc1C,EC50,[1],> 195 µM (not active)
COc1cccc(-c2nccc(NCc3cccc(C)c3)n2)c1,AC50,Cytochrome P450 2C9,1.58 µM (inconclusive)
CC(C)N(CCNC(=O)C1CCC(=O)N1Cc1ccc(F)cc1)Cc1ccccc1 (centres undefined),AC50,Cytochrome P450 2C9,22.4 µM (inconclusive)
COc1ccccc1NC(=O)Cn1c(=O)c(N(C)C)c(N)n(C)c1=O,EC50,[1],> 195 µM (not active)
CCOc1ccc(CN2CCN(Cc3nc4c(s3)CCCC4)CC2CCO)cc1 (centres undefined),EC50,[3],0.772 µM (active)
same,EC50,[4],> 60 µM (not active)
CCOC(=O)c1c(-c2ccccc2)n(C)c2ccc(O)cc12,EC50,[1],> 195 µM (not active)
Cc1ccc(SC[C@H](C)CN2CC[C@H](C(C)(C)C)CCC2=O)cc1,AC50,[2],1.56 µM (active)
COC(=O)[C@@]1(Cc2ccc(F)cc2)[C@H]2c3cc(C(=O)N4CCCC4)n(CCc4c[nH]c5ccc(OC)cc45)c3C[C@H]2CN1C(=O)c1ccccc1,AC50,Cytochrome P450 3A4,0.251 µM (inconclusive)
N#CC(=C1CCCC1)c1nc(-c2ccccc2)cs1,AC50,Cytochrome P450 2C9,25.1 µM (inconclusive)
O=C(Nc1cccc(F)c1)N1CC[C@@]2(CCCNC2)C1,AC50,Cytochrome P450 3A4,7.94 µM (inconclusive)
Cc1onc(-c2ccc(Cl)cc2)c1-c1ccnc(SCC(=O)Nc2cc(Cl)cc(Cl)c2)n1,EC50,[3],1.72 µM (active)
same,EC50,[4],> 60 µM (not active)
C=CCOc1ccc(/C=N\NC(N)=S)cc1,EC50,[3],1.17 µM (active)
same,EC50,[4],> 60 µM (inconclusive)
O=C(CSc1ncc(-c2ccccc2)n1C1CCCC1)N1CCc2ccccc21,EC50,[3],1.81 µM (active)
same,EC50,[6],> 53 µM (inactive)
same,EC50,[4],> 60 µM (not active)
CN(C)Cc1ccccc1-c1cc(N(C)Cc2ccco2)ncn1,AC50,Cytochrome P450 3A4,25.1 µM (inconclusive)
COCCCNC(=O)C1CC(=O)N(CCc2ccc(OC)c(OC)c2)C1 (centres undefined),AC50,Cytochrome P450 3A4,15.8 µM (inconclusive)
c1cncc(CNc2cc(-c3ccoc3)ncn2)c1,AC50,Cytochrome P450 3A4,3.98 µM (inconclusive)

# Reference: ChEMBL document CHEMBL1201862, “PubChem BioAssay data set” (2004)
